Among the data in patent US11773075B2, “Modulators of p97 AAA ATPase activity” (University of Pittsburgh—Of the Commonwealth System of …, priority 2017, dated 2023) are IC50 and melting point values, retold here.

The target in one series is p97 (Homo sapiens, UniProt P55072). The experiment in a line: BioMol Green ATPase assay. The conditions noted are these: 200 μM ATP, read-out: P97 Biomolgreen. It counts as biochemical. An excerpt: Biomol Green (Enzo) is a […] from a biochemical reaction. Because of its high sensitivity, the assay is suitable for monitoring enzyme activities at very early substrate conversions requiring very low amount of enzymes. […] The assay procedure used may be the same as in Zhang et al., “Altered cofactor regulation with disease-associated p97/VCP mutations,” Proc. Natl. Acad. Sci. USA, 112(14), E1705-E1714 (2015).
Sequence of p97 (P55072 whole entry): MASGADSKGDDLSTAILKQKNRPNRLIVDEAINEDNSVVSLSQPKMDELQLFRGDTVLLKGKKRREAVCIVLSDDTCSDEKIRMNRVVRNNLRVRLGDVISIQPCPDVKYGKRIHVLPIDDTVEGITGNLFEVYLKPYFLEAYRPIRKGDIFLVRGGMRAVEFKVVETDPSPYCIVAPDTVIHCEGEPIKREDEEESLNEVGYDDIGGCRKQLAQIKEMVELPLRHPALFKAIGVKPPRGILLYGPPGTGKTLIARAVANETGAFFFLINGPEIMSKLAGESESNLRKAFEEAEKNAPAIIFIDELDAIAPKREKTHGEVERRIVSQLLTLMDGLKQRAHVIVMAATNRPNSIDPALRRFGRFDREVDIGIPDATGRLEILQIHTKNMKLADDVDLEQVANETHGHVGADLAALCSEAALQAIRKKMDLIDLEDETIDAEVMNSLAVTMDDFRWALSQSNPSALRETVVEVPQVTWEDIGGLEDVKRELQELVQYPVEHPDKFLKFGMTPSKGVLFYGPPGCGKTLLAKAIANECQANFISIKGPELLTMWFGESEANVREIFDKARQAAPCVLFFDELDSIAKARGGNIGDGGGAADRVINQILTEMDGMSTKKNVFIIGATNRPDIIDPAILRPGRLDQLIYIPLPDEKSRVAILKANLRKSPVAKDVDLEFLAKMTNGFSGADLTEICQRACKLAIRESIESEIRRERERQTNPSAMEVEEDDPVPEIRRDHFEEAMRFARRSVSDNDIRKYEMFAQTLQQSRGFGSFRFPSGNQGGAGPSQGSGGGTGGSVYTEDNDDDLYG
The BioMol Green ATPase assay procedure used was that which was disclosed in Zhang, et al., “Altered cofactor regulation with disease-associated p97/VCP mutations,” Proc. Natl. Acad. Sci. USA, 112(14), E1705-E1714 (2015). The following Table IV provides relevant results. The compound number correlates to the numbered compounds in Table III. Compounds also show activity in a cell-based assay such as the ubiquitin assay (assay as described in, e.g., (1) Dantuma et al., “Short-lived green fluorescent proteins for quantifying ubiquitin/proteasome-dependent proteolysis in living cells,” Nat. Biotechnol. 2000, 18, 538-543; and (2) WO 2010003908).
With `[2H]C1([2H])C([2H])([2H])C([2H])([2H])C([2H])(Sc2ncc(COc3cc(F)c(C#CCO)cc3F)n2-c2cccnc2)C1([2H])[2H]` [Compound 38], the IC50 was found to be 19 nM.

In the case of `Cc1cc(OCc2c(Cl)nc(SC3C=CCCC3)n2-c2cccnc2)ccc1C#CCO` (stereo not shown) [Compound 18], the IC50 was 34 nM.

For `CCOC(=O)c1nc(SC2CCCC2)n(-c2cccnc2)c1COc1ccc(C#CCO)c(C)c1` [Compound 24], the IC50 came to 50 nM.

As for `Cc1cc(OCc2c(C#CCO)nc(SC3CCCC3)n2-c2cccnc2)ccc1C#CCO` [Compound 23, 3-(4-((2-(Cyclopentylthio)-4-(3-hydroxyprop-1-yn-1-yl)-1-(pyridin-3-yl)-1H-imidazol-5-yl)methoxy)-2-methylphenyl)prop-2-yn-1-ol], the IC50 is 30 nM.

As for `[2H]C1([2H])C([2H])([2H])C([2H])([2H])C([2H])(Sc2ncc(COc3ccc(C#CCOC(=O)NC4CCN(C)CC4)c(F)c3)n2-c2cccnc2)C1([2H])[2H]` [Compound 37, 3-(4-((2-((Cyclopentyl-d9)thio)-1-(pyridin-3-yl)-1H-imidazol-5-yl)methoxy)-2-fluorophenyl)prop-2-yn-1-yl (1-methylpiperidin-4-yl)carbamate], the IC50 turned out to be 17 nM.

`CN1CCC(NC(=O)OCC#Cc2cc(F)c(OCc3cnc(SC4C=CCCC4)n3-c3cccnc3)cc2F)CC1` (stereo not shown) [Compound 36]: the IC50 is 11 nM.

As to `Cc1cc(OCc2cnc(SC3C=CCCC3)n2-c2cccnc2)ccc1C#CCOC(=O)NC1CCN(C)CC1` (stereo not shown) [Compound 15], the IC50 came to 14 nM.

As for `[2H]C1([2H])C([2H])([2H])C([2H])([2H])C([2H])(Sc2ncc(COc3ccc(-c4ccc(S(C)(=O)=O)cc4)c(C)c3)n2-c2cccnc2)C1([2H])[2H]` [Compound 29], the IC50 was determined as 75 nM.

`[2H]C1([2H])C([2H])([2H])C([2H])([2H])C([2H])(Sc2ncc(COc3cc(F)c(C#CCOC(=O)NC4CCN(C)CC4)cc3F)n2-c2cccnc2)C1([2H])[2H]` [Compound 35]: the IC50 came out at 8 nM.

Regarding `Cc1cc(OCc2cnc(SC3C=CCCC3)n2-c2cccnc2)ccc1C#CCNCCN(C)C` (stereo not shown) [Compound 10], the IC50 is 50 nM.

In the case of `[2H]C1([2H])C([2H])([2H])C([2H])([2H])C([2H])(Sc2ncc(COc3cc(Cl)c(C#CCO)cc3Cl)n2-c2cccnc2)C1([2H])[2H]` [Compound 45], the IC50 was found to be 200 nM.

For the compound `Cc1cc(OCc2cnc(SC3C=CCCC3)n2-c2cccnc2)ccc1-c1ccc(S(C)(=O)=O)cc1` (stereo not shown) [Compound 31], the IC50 came to 54 nM.

Regarding `COC(=O)/C=C/c1nc(SC2CCCC2)n(-c2cccnc2)c1COc1ccc(C#CCO)c(C)c1` [Compound 27, Methyl (E)-3-(2-(cyclopentylthio)-5-((4-(3-hydroxyprop-1-yn-1-yl)-3-methylphenoxy)methyl)-1-(pyridin-3-yl)-1H-imidazol-4-yl)acrylate], the IC50 was 110 nM.

With `Cc1cc(OCc2c(Br)nc(SC3C=CCCC3)n2-c2cccnc2)ccc1-c1ccc(S(C)(=O)=O)cc1` (stereo not shown) [Compound 30], the IC50 was determined as 66 nM.

As to `[2H]C1([2H])C([2H])([2H])C([2H])([2H])C([2H])(Sc2ncc(COc3cc(F)c(C#CCOC(=O)NC4CCN(C)CC4)c(F)c3)n2-c2cccnc2)C1([2H])[2H]` [Compound 39], the IC50 is 19 nM.

Regarding `Cc1cc(OCc2cnc(SC3C=CCCC3)n2-c2cccnc2)ccc1C#CCNC1CCN(C)CC1` (stereo not shown) [Compound 9, N-(3-(4-((2-(cyclohex-2-en-1-ylthio)-1-(pyridin-3-yl)-1H-imidazol-5-yl)methoxy)-2-methylphenyl)prop-2-yn-1-yl)-1-methylpiperidin-4-amine], the IC50 came out at 56 nM.

`Cc1cc(OCc2c(C(C)(C)O)nc(SC3CCCC3)n2-c2cccnc2)ccc1C#CCO` [Compound 28, 3-(4-((2-(Cyclopentylthio)-4-(2-hydroxypropan-2-yl)-1-(pyridin-3-yl)-1H-imidazol-5-yl)methoxy)-2-methylphenyl)prop-2-yn-1-ol]: the IC50 turned out to be 250 nM.

`Cc1cc(OCc2c(Br)nc(SC3CC3)n2-c2cccnc2)ccc1C#CCOC(=O)N1CCN(C(C)C)CC1` [Compound 19]: the IC50 worked out at 57 nM.

Turning to `Fc1cc(OCc2cnc(SC3C=CCCC3)n2-c2cccnc2)ccc1Br` (stereo not shown) [Compound 33], the IC50 is 130 nM.

In the case of `CC#Cc1nc(SC2CCCC2)n(-c2cccnc2)c1COc1cc(F)c(C#CCO)c(F)c1` [Compound 41], the IC50 was 40 nM.

Consider `Cc1cc(OCc2c(C(N)=O)nc(SC3CCCC3)n2-c2cccnc2)ccc1C#CCO` [Compound 25], for which the IC50 was determined as 50 nM.

In the case of `Cc1cc(OCc2cnc(SC3C=CCCC3)n2-c2cccnc2)ccc1Cl` (stereo not shown) [Compound 34], the IC50 stood at 160 nM.

As to `Cc1cc(OCc2cnc(SC3C=CCCC3)n2-c2cccnc2)ccc1C#CCOC(=O)NCCN1CCOCC1` (stereo not shown) [Compound 4], the IC50 was determined as 36 nM.

With `Cc1cc(OCc2cnc(SC3C=CCCC3)n2-c2cccnc2)ccc1C#CCOC(=O)NC1CCOCC1` (stereo not shown) [Compound 2], the IC50 was determined as 34 nM.

Turning to `[2H]C1([2H])C([2H])([2H])C([2H])([2H])C([2H])(Sc2ncc(COc3cc(Cl)c(C#CCOC(=O)NC4CCN(C)CC4)cc3Cl)n2-c2cccnc2)C1([2H])[2H]` [Compound 44], the IC50 came to 60 nM.

As to `OCC#Cc1c(F)cc(OCc2c(Cl)nc(SC3C=CCCC3)n2-c2cccnc2)cc1F` (stereo not shown) [Compound 42], the IC50 worked out at 46 nM.

As to `Cc1cc(OCc2cnc(CC3CCCC3)n2-c2cccnc2)ccc1C#CCOC(=O)NC1CCN(C)CC1` [Compound 26], the IC50 was determined as 50 nM.

With `Cc1cc(OCc2cnc(SC(C)C)n2-c2cccnc2)ccc1C#CCOC(=O)NCCN1CCN(C(C)C)CC1` [Compound 5], the IC50 was determined as 100 nM.

Turning to `[2H]C1([2H])C([2H])([2H])C([2H])([2H])C([2H])(Sc2nc(Br)c(COc3ccc(C#CCO)c(C)c3)n2-c2cccnc2)C1([2H])[2H]` [Compound 20], the IC50 stood at 29 nM.

For the compound `Cc1cc(OCc2c(Br)nc(SC3C=CCCC3)n2-c2cccnc2)ccc1C#CCOC(=O)NCCN1CCN(C(C)C)CC1` (stereo not shown) [Compound 13], the IC50 amounted to 32 nM.

With `CC#Cc1nc(SC2CCCC2)n(-c2cccnc2)c1COc1cc(F)c(C#CCOC(=O)NC2CCN(C)CC2)c(F)c1` [Compound 40], the IC50 amounted to 20 nM.

Turning to `COCOCC#Cc1ccc(OCc2cnc(SC3C=CCCC3)n2-c2cccnc2)cc1C` (stereo not shown) [Compound 6], the IC50 is 100 nM.

Regarding `[2H]C1([2H])C([2H])([2H])C([2H])([2H])C([2H])(Sc2nc(Br)c(COc3ccc(C#CCOC(=O)NCCN4CCN(C(C)C)CC4)c(C)c3)n2-c2cccnc2)C1([2H])[2H]` [Compound 21], the IC50 amounted to 17 nM.

For the compound `[2H]C1([2H])C([2H])([2H])C([2H])([2H])C([2H])(Sc2ncc(COc3cc(F)c(C#CCO)c(F)c3)n2-c2cccnc2)C1([2H])[2H]` [Compound 43], the IC50 was 56 nM.

Regarding `Cc1cc(OCc2cnc(SC3C=CCCC3)n2-c2cccnc2)ccc1C#CCOC(=O)NCCN1CCN(C)CC1` (stereo not shown) [Compound 11], the IC50 was determined as 20 nM.

As for `Cc1cc(OCc2cnc(SC3C=CCCC3)n2-c2cccnc2)ccc1C#CCO` (stereo not shown) [Compound 1, 3-(4-((2-(Cyclohex-2-en-1-ylthio)-1-(pyridin-3-yl)-1H-imidazol-5-yl)methoxy)-2-methylphenyl)prop-2-yn-1-ol], the IC50 was 37 nM.

As for `CC(=O)NCC#Cc1ccc(OCc2cnc(SC3C=CCCC3)n2-c2cccnc2)cc1C` (stereo not shown) [Compound 8, N-(3-(4-((2-(Cyclohex-2-en-1-ylthio)-1-(pyridin-3-yl)-1H-imidazol-5-yl)methoxy)-2-methylphenyl)-prop-2-yn-1-yl)acetamide], the IC50 amounted to 60 nM.

On to `Cc1cc(OCc2cnc(SC3C=CCCC3)n2-c2cccnc2)ccc1C#CCOC(=O)NC(C)C` (stereo not shown) [Compound 14], for which the IC50 is 27 nM.

For `Cc1cc(OCc2c(Br)nc(SC3C=CCCC3)n2-c2cccnc2)ccc1C#CCO` (stereo not shown) [Compound 12], the IC50 worked out at 50 nM.

Consider `COCCOCC#Cc1ccc(OCc2cnc(SC3C=CCCC3)n2-c2cccnc2)cc1C` (stereo not shown) [Compound 7], for which the IC50 was 110 nM.

Regarding `CCS(=O)(=O)c1ncc(COc2ccc(C#CCO)c(C)c2)n1-c1cccnc1` [Compound 16, 3-(4-((2-(Ethylsulfonyl)-1-(pyridin-3-yl)-1H-imidazol-5-yl)methoxy)-2-methylphenyl)prop-2-yn-1-ol], the IC50 is above 6700 nM.

For the compound `COCCNC(=O)OCC#Cc1ccc(OCc2cnc(SC3C=CCCC3)n2-c2cccnc2)cc1C` (stereo not shown) [Compound 3], the IC50 was 39 nM.

Take `Cc1cc(OCc2cnc(SC3CC3)n2-c2cccnc2)ccc1C#CCO` [Compound 17]: the IC50 stood at 240 nM.

On to `Cc1cc(OCc2c(Cl)nc(SC3C=CCCC3)n2-c2cccnc2)ccc1-c1ccc(S(C)(=O)=O)cc1` (stereo not shown) [Compound 32], for which the IC50 stood at 37 nM.

Consider `Cc1cc(OCc2c(C#N)nc(SC3CCCC3)n2-c2cccnc2)ccc1C#CCO` [Compound 22], for which the IC50 is 60 nM.

Test system in the next series: not given
Assay: not given
Settings: not given
`Cc1cc(OCc2c(C(C)(C)O)nc(SC3CCCC3)n2-c2cccnc2)ccc1C#CCO` [Compound 28, 3-(4-((2-(Cyclopentylthio)-4-(2-hydroxypropan-2-yl)-1-(pyridin-3-yl)-1H-imidazol-5-yl)methoxy)-2-methylphenyl)prop-2-yn-1-ol] came in with a melting point of 119 to 121 °C.

In general, melting point refers to the temperature, or range, at which the solid turns liquid.
